Results from ChEMBL document CHEMBL4483862, “Open-source discovery of chemical leads for next-generation chemoprotective antimalarials” (2018).

Test system: Plasmodium berghei
Experiment: Luciferase/luciferin-expressing antifolate-resistant parasites were used to infect a culture of HepG2 cells that were pre-incubated with compounds. Infected hepatocytes emit light due to the luciferase reaction. Assay results are presented as the percent inhibition of light emission compared to control. […]
Assay type: functional
Conditions: sporozoite; for IC90: read-out: LUCIFERASE INFECTION ASSAY - IC90
[1] = read-out: LUCIFERASE INFECTION ASSAY - IC50

SMILES | IC90 [µM] | IC50 [1] [µM] | further results
Cc1cc2c(cc1C)C(NC(C)c1ccccc1)=NC(C)(C)C2 (stereo not drawn) | 4.29 | – | IC50 (PBLUC_HILL_SLOPE 13.3, PBLUC_R_SQUARED 0.718, read-out: LUCIFERASE INFECTION ASSAY - IC50): 3.64 µM
O=C(COc1ccc([N+](=O)[O-])c2cccnc12)Nc1ccc(C(F)(F)F)cc1 | > 10 | – | IC50 (FFLUC_HILL_SLOPE 10, FFLUC_R_SQUARED 0.0627, PBLUC_HILL_SLOPE 68.1, PBLUC_R_SQUARED 0.146, read-out: LUCIFERASE INFECTION ASSAY - IC50): 9.89 µM
Cc1ccc(NC(=O)CN2CCN(Cc3c(O)ccc4ccncc34)CC2)cc1 | > 10 | > 10 | –
CCc1ccc(CC)c(-c2csc(N/C(C)=C(\C#N)C(N)=O)n2)c1 | > 10 | – | IC50 (HEPG2TOX_HILL_SLOPE 12.4, HEPG2TOX_R_SQUARED 0.749, PBLUC_HILL_SLOPE 4.61, PBLUC_R_SQUARED 0.122, read-out: LUCIFERASE INFECTION ASSAY - IC50): 8.16 µM
CS(=O)(=O)Nc1ccc(-c2csc(NC(=O)c3sc4sccc4c3Cl)n2)cc1 | 9.72 | – | IC50 (HEPG2TOX_HILL_SLOPE 8.43, HEPG2TOX_R_SQUARED 0.307, PBLUC_HILL_SLOPE 11.2, PBLUC_R_SQUARED 0.136, read-out: LUCIFERASE INFECTION ASSAY - IC50): 7.99 µM
COc1ccc(-c2csc3ncnc(NCc4ccc(-n5ccnc5)nc4)c23)cc1 | 10 | – | IC50 (HEPG2TOX_HILL_SLOPE 2.62, HEPG2TOX_R_SQUARED 0.957, PBLUC_HILL_SLOPE 10.9, PBLUC_R_SQUARED 0.671, read-out: LUCIFERASE INFECTION ASSAY - IC50): 8.17 µM
CCc1ccc(NC(=O)CN(c2cccc3ccccc23)S(=O)(=O)c2ccc(C)c(C)c2)cc1 | > 10 | – | IC50 (FFLUC_HILL_SLOPE 1.69, FFLUC_R_SQUARED 0.486, read-out: LUCIFERASE INFECTION ASSAY - IC50): > 10 µM
Cc1nn(-c2ccccc2Cl)c2sc(C(=O)Nc3ccc(N4CCN(C)CC4)nc3)cc12 | > 10 | – | IC50 (PBLUC_HILL_SLOPE 1.19, PBLUC_R_SQUARED 0.233, read-out: LUCIFERASE INFECTION ASSAY - IC50): 5.77 µM
C=CCN(C(=O)/C(=C/c1ccccc1)n1nnnc1C)c1nc(-c2ccccc2)cs1 | 5.71 | – | IC50 (HEPG2TOX_HILL_SLOPE 12.1, HEPG2TOX_R_SQUARED 0.931, PBLUC_HILL_SLOPE 6.74, 7.08, PBLUC_R_SQUARED 0.881, 0.796, read-out: LUCIFERASE INFECTION ASSAY - IC50): 4.16 µM
CC(C)(C(=O)NCc1ccccc1Br)n1cc(-c2ccc(OCCN3CCCC3)cc2)cn1 | > 10 | > 10 | –
CC1CC(C)CN(Cc2nc(=O)c3c(-c4ccc(Cl)cc4)csc3[nH]2)C1 (stereo not drawn) | 6.66 | – | IC50 (FFLUC_HILL_SLOPE 12.3, FFLUC_R_SQUARED 0.735, PBLUC_HILL_SLOPE 4.47, PBLUC_R_SQUARED 0.339, read-out: LUCIFERASE INFECTION ASSAY - IC50): 4.07 µM
CS(=O)(=O)c1ccc(N2CCCN(c3ccc(C(F)(F)F)cn3)CC2)c([N+](=O)[O-])c1 | > 10 | > 10 | –
CCNC(=O)c1nn(CC2CC2)c2c1CN(C(=O)c1cc(-c3ccccc3F)n[nH]1)CC2 | 4.07 | – | IC50 (PBLUC_HILL_SLOPE 5.13, PBLUC_R_SQUARED 0.551, read-out: LUCIFERASE INFECTION ASSAY - IC50): 2.65 µM
C=CCn1c(SCc2c(C)noc2C)nc2scc(C3CC3)c2c1=O | 0.0519 | – | IC50 (HEPG2TOX_HILL_SLOPE 0.626, HEPG2TOX_R_SQUARED 0.778, PBLUC_HILL_SLOPE 13, PBLUC_R_SQUARED 0.397, read-out: LUCIFERASE INFECTION ASSAY - IC50): 0.0439 µM
O=C(/C=c1/[nH]c(=O)/c(=C/c2ccc(-c3ccccc3F)s2)s1)c1ccncc1 | > 10 | – | IC50 (FFLUC_HILL_SLOPE 1.61, FFLUC_R_SQUARED 0.374, read-out: LUCIFERASE INFECTION ASSAY - IC50): > 10 µM
O=C(CNc1cc(C(F)(F)F)cc(C(F)(F)F)c1)NC(=O)NC1CCCC1 | > 10 | 5.94 | –
COc1ccccc1-n1nnnc1SC(C)C(=O)Nc1ccc2[nH]c(=O)[nH]c2c1 (stereo not drawn) | > 10 | > 10 | –
COc1ccccc1-c1noc(CSc2nc3ccccc3c(=O)n2-c2ccc(C)cc2)n1 | > 10 | > 10 | –
COC(=O)c1ccc(/C=C/C(=O)OCC(=O)C(C#N)=C2Nc3ccccc3N2)cc1 | > 10 | > 10 | –
COc1ccc(C2C3CSc4ccccc4C3=NN2c2ccccc2)cc1 (stereo not drawn) | > 8.86 | – | IC50 (FFLUC_HILL_SLOPE 1.37, FFLUC_R_SQUARED 0.894, PBLUC_HILL_SLOPE 1.03, PBLUC_R_SQUARED 0.404, read-out: LUCIFERASE INFECTION ASSAY - IC50): 4.95 µM
c1ccc2cc(-c3cnc4ccc(NCc5ccncc5)nn34)ccc2c1 | 4.49 | – | IC50 (HEPG2TOX_HILL_SLOPE 3.1, HEPG2TOX_R_SQUARED 0.978, PBLUC_HILL_SLOPE 7.42, PBLUC_R_SQUARED 0.525, read-out: LUCIFERASE INFECTION ASSAY - IC50): 3.34 µM
O=C(NNC(=O)c1csnn1)c1ccc(Cl)cc1 | 0.897 | – | IC50 (PBLUC_HILL_SLOPE 1.87, PBLUC_R_SQUARED 0.856, read-out: LUCIFERASE INFECTION ASSAY - IC50): 0.277 µM

SMILES | IC90 [µM] | IC50 [1] [µM] | further results
CC(C)(C)c1cc(NC(=O)Nc2ccc(C#N)cc2)n(-c2ccccc2)n1 | 0.0487 | – | IC50 (PBLUC_HILL_SLOPE 3.93, PBLUC_R_SQUARED 0.959, read-out: LUCIFERASE INFECTION ASSAY - IC50): 0.0279 µM
COc1ccc(S(=O)(=O)Nc2cc(Sc3ccc(C)cc3)c(O)c3ccccc23)cc1 | > 10 | – | IC50 (PBLUC_HILL_SLOPE 2.53, PBLUC_R_SQUARED 0.459, read-out: LUCIFERASE INFECTION ASSAY - IC50): 6.71 µM
O=C1NC(=O)/C(=C\c2ccc(Cl)c(Cl)c2)N1 | 5.37 | – | IC50 (HEPG2TOX_HILL_SLOPE 1.44, HEPG2TOX_R_SQUARED 0.948, PBLUC_HILL_SLOPE 2.09, PBLUC_R_SQUARED 0.686, read-out: LUCIFERASE INFECTION ASSAY - IC50): 1.87 µM
Cc1cc(C)nc(Nc2nc(C(N)Cc3ccc(C(F)(F)F)cc3)cs2)n1 (stereo not drawn) | > 8.39 | > 8.39 | –
Cc1cc(C(=O)COn2nnc3ccc(S(=O)(=O)N4CCOCC4)cc32)c(C)n1C | > 10 | > 10 | –
CCn1c(SCc2csc(N(C(C)=O)c3c(C)cc(C)cc3Cl)n2)nnc1C1CC1 | > 10 | > 10 | –
COc1ccc(N(C)S(=O)(=O)c2cccc(C(=O)Nc3ccc(Br)c(C(F)(F)F)c3)c2)cc1 | > 10 | > 10 | –
COCCCNc1nccc2nc(-c3cccc(C(C)C)c3)[nH]c12 | > 10 | – | IC50 (HEPG2TOX_HILL_SLOPE 0.453, HEPG2TOX_R_SQUARED 0.728, PBLUC_HILL_SLOPE 2.13, PBLUC_R_SQUARED 0.522, read-out: LUCIFERASE INFECTION ASSAY - IC50): 4.47 µM
Clc1ccc(-c2nnc(Sc3nc(-c4cccs4)ns3)[nH]2)cc1 | > 8.73 | > 8.73 | –
Cc1nc(-c2ccccn2)nc(NCCc2ccccc2)c1Cl | 5.38 | – | IC50 (PBLUC_HILL_SLOPE 7.11, PBLUC_R_SQUARED 0.141, read-out: LUCIFERASE INFECTION ASSAY - IC50): 3.95 µM
CCc1ccc(CN(C)CC(O)COc2cccc3ccccc23)cc1 (stereo not drawn) | > 10 | > 10 | –
CCOc1ccc(-n2c(C)cc(/C=N/Nc3nc(C)cc(O)n3)c2C)cc1 | > 10 | – | IC50 (PBLUC_HILL_SLOPE 14.4, PBLUC_R_SQUARED 0.318, read-out: LUCIFERASE INFECTION ASSAY - IC50): 9.96 µM
O=C1CN(C(=O)CNC(c2ccccc2)c2cccs2)c2ccccc2N1 (stereo not drawn) | > 10 | > 10 | –
FC(F)Oc1ccc(-c2csc(COc3ccc(C4SCCS4)cc3)n2)cc1 | > 7.54 | 3.7 | –
CCN1C(=O)N(CCc2ccccc2)C2(CCN(Cc3cccc(OC)c3)CC2)C1=O | > 7.83 | – | IC50 (HEPG2TOX_HILL_SLOPE 18.8, HEPG2TOX_R_SQUARED 0.873, read-out: LUCIFERASE INFECTION ASSAY - IC50): > 7.83 µM
Clc1ccc(CN2CCN(c3ncnc4sccc34)CC2)s1 | > 10 | – | IC50 (HEPG2TOX_HILL_SLOPE 8.99, HEPG2TOX_R_SQUARED 0.725, PBLUC_HILL_SLOPE 4.78, PBLUC_R_SQUARED 0.254, read-out: LUCIFERASE INFECTION ASSAY - IC50): 8.3 µM
CC(C)c1cc(C(=O)OCCCn2c(=O)[nH]c3ccccc32)c2cnn(C(C)C)c2n1 | > 10 | > 10 | –
CCCCNC(=O)c1c(NC(=O)c2cccc(C(F)(F)F)c2)nc2ccc(C)cn12 | 1 | – | IC50 (FFLUC_HILL_SLOPE 2.04, FFLUC_R_SQUARED 0.518, HEPG2TOX_HILL_SLOPE 1.13, HEPG2TOX_R_SQUARED 0.759, PBLUC_HILL_SLOPE 2.77, PBLUC_R_SQUARED 0.788, read-out: LUCIFERASE INFECTION ASSAY - IC50): 0.453 µM
COc1ccc(/C=C/c2ccc3c(Cl)cc(Cl)c(O)c3n2)cc1 | 0.43 | – | IC50 (HEPG2TOX_HILL_SLOPE 0.83, HEPG2TOX_R_SQUARED 0.868, PBLUC_HILL_SLOPE 16.3, PBLUC_R_SQUARED 0.735, read-out: LUCIFERASE INFECTION ASSAY - IC50): 0.375 µM
Cc1nc(N(C)Cc2c(C)nn(C3CCS(=O)(=O)C3)c2C)c2c(-c3ccccc3)csc2n1 (stereo not drawn) | > 10 | – | IC50 (HEPG2TOX_HILL_SLOPE 23.3, HEPG2TOX_R_SQUARED 0.0131, PBLUC_HILL_SLOPE 4.31, PBLUC_R_SQUARED 0.318, read-out: LUCIFERASE INFECTION ASSAY - IC50): 6.76 µM
CCN(CC)C(=S)SCC(=O)c1cc(C)n(-c2ccccc2)c1C | > 10 | 4.85 | –
Cc1c(Sc2ccc(F)cc2)c2ccccn2c1/C(=N\S(=O)(=O)c1cccs1)c1ccccc1 | > 10 | > 10 | –
